The source of these data is article PMC12735778, “Purification and Biochemical Characterization of Polyphenol Oxidase from Falcaria vulgaris Bernh” (Molecules, 2025).

Each structure is given as a SMILES string. Marks after values point to notes of the source that are not given here.

Assay [1] relates to PPO from persimmon fruits. On the set-up: method as in doi:10.1016/j.foodchem.2003.07.022. The note with it: substance as substrate, ref [47], cited from earlier work; for Vmax: asterisked values.
Assay [2] relates to PPO from Laccaria laccata (LacPPO). Further details: method as in doi:10.1111/jfbc.12605. The following applies: substance as substrate; ref [43]; cited from earlier work.
For assay [3], the system named is polyphenol oxidase (PPO) from sickleweed. Nature of the assay: Substrate kinetics of sickleweed PPO (Lineweaver-Burk). The class given is biochemical, Falcaria vulgaris Bernh. The following applies: substance as substrate; optimum pH and temperature. Here is the method: (§1) PPO activity was determined by measuring the increase in absorbance at 496 nm for 4-methylcatechol and 500 nm for catechol and DHPPA with a UV–Vis spectrophotometer. PPO activity was detected by the increment in absorbance in 1 min by adding 100 μL of the substrate (100 mM), 100 μL of 3-Methyl-2-benzothiazolinone hydrazone (MBTH, 10 mM), 20 μL of Dimethylformamide (DMF), 680 μL of 50 mM pH 5.0 acetate buffer, and finally 100 μL of the enzyme. The blank contains all solutions, excluding the enzyme. The enzyme unit is defined as the amount of the enzyme producing an absorbance increase of 0.001 per minute in 1 mL of the reaction mixture. The specific activity of PPO was defined as units per mg of protein [64].
To determine substrate specificity, catechol (0.2–20 mM), 4-methylcatechol (0.2–20 mM), and DHPPA (0.2–20 mM) concentrations were studied. Enzyme activity was carried out at optimum temperature and pH. The kinetic data were analyzed in terms of 1/activity (1/V) and 1/substrate concentration ([S]). The Michaelis-Menten constant (Km) and the maximum velocity (Vmax) were computed by plotting the Lineweaver-Burk graph. The catalytic efficiency ratio (Vmax/Km) was used as a criterion to evaluate substrate specificity.

For assay [4], the system named is PPO from Chinese parsley. On the set-up: method as in PMID 30263491. The following applies: substance as substrate; ref [50]; cited from earlier work.
Assay [5] has as its system Medlar PPO. Further details: method as in doi:10.1016/S0308-8146(01)00359-4. The note with it: substance as substrate, ref [51], cited from earlier work; for Vmax: asterisked values.
In assay [6] the test system is PPO from Sarali plum. On the set-up: method as in doi:10.1007/s11694-024-02663-y. The following applies: substance as substrate; ref [39]; cited from earlier work.
In assay [7] the test system is PPO from butter lettuce. Further details: method as in doi:10.1016/j.foodchem.2007.07.068. The note with it: substance as substrate; ref [38]; cited from earlier work.
Assay [8] relates to polyphenol oxidase (PPO) from sickleweed. Nature of the assay: Inhibition of PPO purified from sickleweed, 4-methylcatechol substrate. The class given is biochemical, Falcaria vulgaris Bernh. The note with it: substrate 4-methylcatechol; for Inhibition type / Ki: Lineweaver-Burk plots; for IC50: optimum conditions. Here is the method:
as §1
The common inhibitors of PPO were preferred to study the inhibitory effects on PPO activity. For the 4-methylcatechol substrate, sodium metabisulphite (0.005–0.1 mM), citric acid (5–60 mM), and ascorbic acid (0.005–0.04 mM) inhibitors were utilized to determine enzyme activities under optimum conditions. The half maximal inhibitory concentration (IC50), which halves the enzyme activity, was calculated using the graph of percentage residual activity (%) versus inhibitor concentration (enzyme activity in the absence of inhibitor was accepted as one hundred percent). Then, enzyme activities were studied at five substrate concentrations and three inhibitor concentrations under optimum conditions. The Lineweaver-Burk graphs were drawn by calculating 1/V and 1/[S] values with the obtained data. From these graphs, inhibition constant (Ki) values were calculated for each inhibitor, and the inhibition type was determined.

Assay [9] concerns PPO from broccoli florets. Further details: method as in doi:10.1016/j.foodchem.2007.05.012. The note with it: substrate 4-methylcatechol; ref [61]; cited from earlier work.
Assay [10] has as its system PPO from purslane. Further details: method as in doi:10.1590/1678-457x.03216. The note with it: substrate catechol; ref [21]; cited from earlier work.
Assay [11] concerns PPO from tea leaf. Further details: method as in doi:10.1007/s11694-019-00264-8. The following applies: substrate catechol; ref [40]; cited from earlier work.
For assay [12], the system named is PPO from Sarali plum. Further details: method as in doi:10.1007/s11694-024-02663-y. The following applies: substrate 4-methylcatechol; ref [39]; cited from earlier work.

Usually Km stands for the concentration of substrate that gives half-maximal velocity. For orientation: Ki means the equilibrium dissociation constant of an inhibitor or competing ligand from its target. A word on the IC50: it is the concentration that gives 50% inhibition.

Regarding `Cc1ccc(O)c(O)c1` [4-Methylcatechol, 4-methylcatechol], the Vmax is given as 49.5 * μM/min in assay [1]; 5000 EU·mL^−1·min^−1 in assay [3]; 1428.57 EU·mL^−1·min^−1 in assay [4]; 130 * μM/min in assay [5]; 2333.33 ± 288.68 EU·mL^−1·min^−1 in [6]; 5405 ± 4 EU·mL^−1·min^−1 in assay [7]. In addition, the Km in assay [1] is 14.6 mM; in [2], 0.4 mM; in [3], 2 mM; in assay [4] it was 37.4 mM; in assay [5], 7.5 mM; in [6] it was 4.75 ± 0.66 mM. The Km in [7] was 1 ± 0.09 mM.

Regarding `Oc1ccccc1O` [Catechol, catechol], the Vmax is reported as 55.2 * μM/min in assay [1]; 10,000 EU·mL^−1·min^−1 in assay [3]; 2000 EU·mL^−1·min^−1 in [4]; 88.0 * μM/min in [5]; 914.14 ± 83.45 EU·mL^−1·min^−1 in assay [6]; 4081 ± 8 EU·mL^−1·min^−1 in [7]. Also, the Km is 12.4 mM in assay [1]; 0.25 mM in assay [2]; 5 mM in assay [3]; 31 mM in assay [4]; 5.7 mM in assay [5]; 1.16 ± 0.12 mM in assay [6]. Further, in assay [7], the Km was 3.2 ± 0.01 mM.

Turning to `O=C(O)CC(O)(CC(=O)O)C(=O)O` [Citric acid, citric acid], the figures for the Inhibition type entry in assay [8], in assay [9] and in assay [10] were “Competitive”, “Noncompetitive” and “Uncompetitive”, respectively. For the same compound, the Ki was 8370 µM in assay [8], 8730 µM in [8] (listed as citric acid), 74 µM in assay [9] and 4470 µM in assay [10]. The compound further gave an IC50 in assay [8] of 32000 µM.

Take `O=C1O[C@H]([C@@H](O)CO)C(O)=C1O` [Ascorbic acid, ascorbic acid]: the IC50 in [11] was 69.3 µM; in assay [8] it was 26 µM; in assay [12], 38 ± 1 µM. Besides, the Inhibition type result is “Competitive” in [11]; “Competitive” in assay [8]; “Competitive” in assay [12]; “Noncompetitive” in assay [9]; “Noncompetitive” in [10]. Besides, the inhibitory constant (Ki) is 32.7 µM in assay [11]; 10.1 µM in assay [8]; 9.5 µM in assay [12]; 88 µM in [9]; 360 µM in [10].

Regarding `O=S(O)S(=O)(=O)O` [Sodium metabisulfite, sodium metabisulfite], in assay [11], the concentration for half-maximal inhibition (IC50) is 21.7 µM, the Inhibition type result was “Noncompetitive” and the Ki was 19.3 µM. In assay [8], the Inhibition type entry is given as “Noncompetitive”, the affinity corresponds to a Ki of 23.7 µM and it took 27 µM to reach half-maximal inhibition (IC50).

As for `O=C(O)CCc1ccc(O)c(O)c1` [DHPPA, 3,4-Dihydroxyphenylpropionic acid], the Vmax in assay [1] was 17.2 * μM/min; in assay [3], 14,285.71 EU·mL^−1·min^−1; in [5] it was 7.2 * μM/min. The Michaelis constant (Km) in [1] was 12.8 mM; in [3], 11.4 mM; in [5] it was 1.9 mM.
